Reference: PubChem BioAssay AID256 (DTP/NCI, 2004)
“And” between values parts separate entries of the source, which are not always exact repeats. Identical values can stand only once. Toxic doses and inconclusive results are not listed. How the source made its calls: active means survival T/C of 150% or more; inactive means T/C below 125% in these data.

Tested on: CD2F1 mice, L1210 leukemia ip, survival T/C
Assay: NCI In Vivo Anticancer Drug Screen. Data for tumor model L1210 Leukemia (intraperitoneal) in CD2F1 (CDF1) mice
Conditions: higher = longer survival
Method in brief: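 Each value reflects a quotient of treated over vehicle control outcomes in mice with a transplanted tumor.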

[1] = endpoint: mean survival time, dose: 100.0 mg/kg/injection, schedule: Q04DX003 (ip), vehicle: saline
[2] = endpoint: mean survival time, dose: 200.0 mg/kg/injection, schedule: Q04DX003 (ip), vehicle: saline
[3] = endpoint: mean survival time, dose: 400.0 mg/kg/injection, schedule: Q04DX003 (ip), vehicle: saline
[4] = endpoint: mean survival time, dose: 50.0 mg/kg/injection, schedule: Q01DX009 (ip), vehicle: saline with Tween-80
[5] = endpoint: mean survival time, dose: 100.0 mg/kg/injection, schedule: Q01DX009 (ip), vehicle: saline with Tween-80
[6] = endpoint: mean survival time, dose: 200.0 mg/kg/injection, schedule: Q01DX009 (ip), vehicle: saline with Tween-80
[7] = endpoint: mean survival time, dose: 12.5 mg/kg/injection, schedule: Q01DX009 (ip), vehicle: saline with Tween-80
[8] = endpoint: mean survival time, dose: 100.0 mg/kg/injection, schedule: Q04DX003 (ip), vehicle: saline with Tween-80
[9] = endpoint: mean survival time, dose: 200.0 mg/kg/injection, schedule: Q04DX003 (ip), vehicle: saline with Tween-80

Measured: T/C

CN(C)P1(=O)OCC(C(C)(C)C)CO1 (configuration not stated)
inactive: endpoint: mean survival time, dose: 25.0 mg/kg/injection, schedule: Q04DX002 (ip), vehicle: saline with Tween-80 101 % of control and 91 % of control | endpoint: mean survival time, dose: 50.0 mg/kg/injection, schedule: Q04DX002 (ip), vehicle: saline with Tween-80 97 % of control and 94 % of control | endpoint: mean survival time, dose: 100.0 mg/kg/injection, schedule: Q04DX002 (ip), vehicle: saline with Tween-80 86 % of control and 94 % of control and 100 % of control

CC1(C)OCC2OC3(CO)NP(=O)(N(CCCl)CCCl)OC3C2O1 (configuration not stated)
inactive: endpoint: mean survival time, dose: 62.5 mg/kg/injection, schedule: Q01DX001 (ip), vehicle: distilled water + Tween-80 102 % of control | endpoint: mean survival time, dose: 125.0 mg/kg/injection, schedule: Q01DX001 (ip), vehicle: distilled water + Tween-80 101 % of control | endpoint: mean survival time, dose: 250.0 mg/kg/injection, schedule: Q01DX001 (ip), vehicle: distilled water + Tween-80 93 % of control

C1CCC(N2CCOCC2)CC1
inactive: endpoint: mean survival time, dose: 25.0 mg/kg/injection, schedule: Q04DX002 (ip), vehicle: saline 105 % of control | endpoint: mean survival time, dose: 50.0 mg/kg/injection, schedule: Q04DX002 (ip), vehicle: saline 102 % of control

O=c1ssc(=Nc2ccccc2)n1-c1ccccc1
inactive: endpoint: mean survival time, dose: 12.5 mg/kg/injection, schedule: Q01DX009 (ip), vehicle: Klucel (hydroxypropylcellulose) (HPC) 103 % of control | endpoint: mean survival time, dose: 25.0 mg/kg/injection, schedule: Q01DX009 (ip), vehicle: Klucel (hydroxypropylcellulose) (HPC) 93 % of control and 102 % of control | endpoint: mean survival time, dose: 50.0 mg/kg/injection, schedule: Q01DX009 (ip), vehicle: Klucel (hydroxypropylcellulose) (HPC) 98 % of control and 110 % of control | endpoint: mean survival time, dose: 100.0 mg/kg/injection, schedule: Q01DX009 (ip), vehicle: Klucel (hydroxypropylcellulose) (HPC) 103 % of control and 108 % of control | endpoint: mean survival time, dose: 200.0 mg/kg/injection, schedule: Q01DX009 (ip), vehicle: Klucel (hydroxypropylcellulose) (HPC) 98 % of control and 102 % of control | endpoint: mean survival time, dose: 400.0 mg/kg/injection, schedule: Q01DX009 (ip), vehicle: Klucel (hydroxypropylcellulose) (HPC) 117 % of control and 104 % of control

O=C(O)CCCOc1ccc(Cl)cc1Cl
inactive: [1] 96 % of control | [2] 103 % of control | [3] 97 % of control

Cc1cccc(C)c1N=C(NO)c1ccccc1
inactive: endpoint: mean survival time, dose: 100.0 mg/kg/injection, schedule: Q01DX001 (ip), vehicle: saline 102 % of control | [1] 106 % of control | endpoint: mean survival time, dose: 200.0 mg/kg/injection, schedule: Q01DX001 (ip), vehicle: saline 100 % of control | [2] 112 % of control | endpoint: mean survival time, dose: 400.0 mg/kg/injection, schedule: Q01DX001 (ip), vehicle: saline 90 % of control | [3] 100 % of control

CN(C)c1ccc(N=Nc2ccc(S(=O)(=O)O)cc2)cc1.CN(C)c1ccc(N=Nc2ccc(S(=O)(=O)O)cc2)cc1.[NH-]C1CCCCC1[NH-].[Pt+2]
inactive: endpoint: median survival time, dose: 3.12 mg/kg/injection, schedule: Q04DX003 (ip), vehicle: saline 121 % of control and 107 % of control | endpoint: median survival time, dose: 6.25 mg/kg/injection, schedule: Q04DX003 (ip), vehicle: saline 109 % of control | endpoint: median survival time, dose: 100.0 mg/kg/injection, schedule: Q04DX003 (ip), vehicle: saline 105 % of control | endpoint: median survival time, dose: 200.0 mg/kg/injection, schedule: Q04DX003 (ip), vehicle: saline 116 % of control

[C-]#[O+].[C-]#[O+].[C-]#[O+].[C-]#[O+].[C-]#[O+].[Cr].c1ccc([PH+](c2ccccc2)c2ccccc2)cc1
inactive: [4] 100 % of control | [5] 91 % of control | [6] 93 % of control

CC1(O)OOC(=O)C1(C)C (configuration not stated)
inactive: endpoint: mean survival time, dose: 5.0 mg/kg/injection, schedule: Q01DX001 (ip), vehicle: saline with Tween-80 91 % of control | endpoint: mean survival time, dose: 10.0 mg/kg/injection, schedule: Q01DX001 (ip), vehicle: saline with Tween-80 91 % of control | endpoint: mean survival time, dose: 20.0 mg/kg/injection, schedule: Q01DX001 (ip), vehicle: saline with Tween-80 92 % of control

CN1CCN(C(=S)S)CC1
inactive: [7] 100 % of control | endpoint: mean survival time, dose: 25.0 mg/kg/injection, schedule: Q01DX009 (ip), vehicle: saline with Tween-80 95 % of control | [4] 100 % of control

O=C(O/N=C(/CBr)c1ccccc1)c1ccccc1
inactive: endpoint: mean survival time, dose: 75.0 mg/kg/injection, schedule: Q01DX001 (ip), vehicle: other 101 % of control | endpoint: mean survival time, dose: 150.0 mg/kg/injection, schedule: Q01DX001 (ip), vehicle: other 97 % of control | endpoint: mean survival time, dose: 300.0 mg/kg/injection, schedule: Q01DX001 (ip), vehicle: other 103 % of control

C=CC(=O)O
inactive: endpoint: mean survival time, dose: 1.56 mg/kg/injection, schedule: Q04DX003 (ip), vehicle: saline with Tween-80 107 % of control | endpoint: mean survival time, dose: 3.12 mg/kg/injection, schedule: Q04DX003 (ip), vehicle: saline with Tween-80 109 % of control | endpoint: mean survival time, dose: 6.25 mg/kg/injection, schedule: Q01DX009 (ip), vehicle: saline with Tween-80 97 % of control | endpoint: mean survival time, dose: 6.25 mg/kg/injection, schedule: Q04DX003 (ip), vehicle: Klucel (hydroxypropylcellulose) (HPC) 90 % of control | endpoint: mean survival time, dose: 6.25 mg/kg/injection, schedule: Q04DX003 (ip), vehicle: saline with Tween-80 101 % of control | endpoint: mean survival time, dose: 9.2 mg/kg/injection, schedule: Q01DX009 (ip), vehicle: acetone 89 % of control | [7] 92 % of control | endpoint: mean survival time, dose: 12.5 mg/kg/injection, schedule: Q04DX003 (ip), vehicle: Klucel (hydroxypropylcellulose) (HPC) 96 % of control | endpoint: mean survival time, dose: 12.5 mg/kg/injection, schedule: Q04DX003 (ip), vehicle: saline with Tween-80 91 % of control | endpoint: mean survival time, dose: 25.0 mg/kg/injection, schedule: Q04DX003 (ip), vehicle: saline with Tween-80 97 % of control

CC(C)=CCC/C(C)=C\CC1=C(O)c2ccccc2C(=O)C1=O
inactive: endpoint: mean survival time, dose: 50.0 mg/kg/injection, schedule: Q01DX009 (ip), vehicle: other 96 % of control | endpoint: mean survival time, dose: 100.0 mg/kg/injection, schedule: Q01DX009 (ip), vehicle: other 94 % of control | endpoint: mean survival time, dose: 200.0 mg/kg/injection, schedule: Q01DX009 (ip), vehicle: other 95 % of control

CCCCCCCc1c(C)c2ccc(OC)cc2[nH]c1=O
inactive: [8] 95 % of control | [9] 90 % of control

CC1C=COC(C)CO1 (configuration not stated) (tested in a mixture with another compound)
inactive: [8] 103 % of control | [9] 97 % of control | endpoint: mean survival time, dose: 400.0 mg/kg/injection, schedule: Q04DX003 (ip), vehicle: saline with Tween-80 95 % of control

CSCCCNC(=O)c1csc(CCNC(=O)c2ccccc2)n1
inactive: [5] 108 % of control | [6] 101 % of control | endpoint: mean survival time, dose: 400.0 mg/kg/injection, schedule: Q01DX009 (ip), vehicle: saline with Tween-80 101 % of control

O=C[C@@H](CO)O[C@H](C=O)n1cnc2c(=O)[nH]cnc21
inactive: endpoint: mean survival time, dose: 20.0 mg/kg/injection, schedule: Q01DX009 (ip), vehicle: saline 111 % of control | endpoint: mean survival time, dose: 40.0 mg/kg/injection, schedule: Q01DX009 (ip), vehicle: saline 115 % of control | endpoint: mean survival time, dose: 50.0 mg/kg/injection, schedule: Q04DX003 (ip), vehicle: saline 114 % of control | endpoint: mean survival time, dose: 70.0 mg/kg/injection, schedule: Q01DX001 (ip), vehicle: saline 110 % of control | endpoint: mean survival time, dose: 140.0 mg/kg/injection, schedule: Q01DX001 (ip), vehicle: saline 124 % of control | endpoint: median survival time, dose: 38.9 mg/kg/injection, schedule: Q01DX005 (ip), vehicle: saline 122 % of control | endpoint: median survival time, dose: 39.0 mg/kg/injection, schedule: Q01DX009 (ip), vehicle: clinical formulation 122 % of control | endpoint: median survival time, dose: 50.0 mg/kg/injection, schedule: Q01DX005 (ip), vehicle: distilled water + Tween-80 118 % of control | endpoint: median survival time, dose: 133.0 mg/kg/injection, schedule: Q01DX009 (ip), vehicle: clinical formulation 105 % of control
active: endpoint: mean survival time, dose: 80.0 mg/kg/injection, schedule: Q01DX009 (ip), vehicle: saline 160 % of control | endpoint: mean survival time, dose: 100.0 mg/kg/injection, schedule: Q01DX007 (ip), vehicle: saline 156 % of control | endpoint: mean survival time, dose: 160.0 mg/kg/injection, schedule: Q01DX009 (ip), vehicle: saline 177 % of control and 182 % of control | endpoint: mean survival time, dose: 200.0 mg/kg/injection, schedule: Q01DX007 (ip), vehicle: saline 150 % of control | endpoint: mean survival time, dose: 200.0 mg/kg/injection, schedule: Q01DX009 (ip), vehicle: saline 287 % of control | endpoint: mean survival time, dose: 200.0 mg/kg/injection, schedule: Q03DX003 (ip), vehicle: saline 162 % of control | [2] 158 % of control | endpoint: median survival time, dose: 89.0 mg/kg/injection, schedule: Q01DX009 (ip), vehicle: clinical formulation 173 % of control | endpoint: median survival time, dose: 89.0 mg/kg/injection, schedule: Q01DX009 (ip), vehicle: sodium bicarbonate 171 % of control | endpoint: median survival time, dose: 133.0 mg/kg/injection, schedule: Q01DX009 (ip), vehicle: sodium bicarbonate 163 % of control | endpoint: median survival time, dose: 180.0 mg/kg/injection, schedule: Q01DX005 (ip), vehicle: saline 170 % of control | endpoint: median survival time, dose: 200.0 mg/kg/injection, schedule: Q01DX005 (ip), vehicle: distilled water + Tween-80 196 % of control | endpoint: median survival time, dose: 300.0 mg/kg/injection, schedule: Q01DX005 (ip), vehicle: saline 238 % of control
